Data on 2 molecules can be found in patent US8337792B2, “Aromatic imine compounds for use as sulfide scavengers” (priority 2007, dated 2012).

A short description of data set [1]: Comparison with conventional treatments against H2S dissolved in water (Table 2). The conditions noted are these: 1,000 ppm H2S in water; for Lead acetate paper test, Head space / Lead acetate paper test, Liquid: paper colour. An excerpt: (§1) An overall comparison of the features of the present aromatic imine compounds and conventional compositions is shown in Table 3.

The nature of data set [2]: Comparison of features, performance and handling (Table 3).
Source text: as §1

The nature of data set [3]: Comparison of features, safety and hazard (Table 3).
Source text: as §1

A short description of data set [4]: Solubility in water, oil, fuel and solvents. The data set is classed as physicochemical.

On to `OCCN1CN(CCO)CN(CCO)C1` [Triazine], for which, in data set [1], the “Residual H2S, I2 Titration” value is on record as 660 ppm; the “Residual H2S, Outside Lab” value came out at 728 ppm; the “Lead acetate paper test, Head space” value is “yellow/”; the “Lead acetate paper test, Liquid” value was “brown”.
On to `O=CC=O` [Glyoxal], for which, in data set [1], the “Residual H2S, I2 Titration” value was found to be 350 ppm; the “Residual H2S, Outside Lab” value was found to be 240 ppm; the “Lead acetate paper test, Head space” value is on record as “brown/”; the “Lead acetate paper test, Liquid” value is given as “yellow/”. For the same molecule, in data set [2], the Deodorizes result is “no”, the Stable entry was “no” and the “Strong bonding to H2S” value is recorded as “no”. Further, the “Reactivity*” value in data set [2] (1 is highest) was 1. The “Reactive at ambient temperature” value in data set [2] (ambient temperature) is on record as “yes”. In data set [3], the Carcinogenicity result was “yes”, the Mutagenicity entry is “yes”, the “RCRA Hazardous Waste” value is “yes” and the Safe to use entry was “some”. In data set [3], the Sensitizing chemical entry is “yes” and the Toxicity entry is “no”. Besides, in data set [3] (formaldehyde in the product), the Formaldehyde is 100 ppm. The “Oil Solubility” value in data set [4] is “no”.
